This passage reports IC50 results from patent publication US20230219978A1, “COMPOUND HAVING MACROCYCLIC STRUCTURE AND USE THEREOF” (SCINNOHUB PHARMACEUTICAL CO., LTD, priority 2020, published 2023).

Assay type in all cases: biochemical
Assay [1] has as its target T1, BTK (Homo sapiens, UniProt Q06187).
T1 construct: purchased Carna 08-180
Description: In vitro kinase activity assay (mobility shift assay), BTK. Conditions: ATP 71 μM, reaction time 30 min. The method in brief:
(§1)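 Each enzyme was first exposed to test compound (top 1000 nM, 3-fold dilutions, 10 concentrations, one well each) for 10 min at room temperature. Adding ATP and peptide substrate started the reaction, which proceeded 30-240 min before stopping. Conversion was then measured and curves fitted for IC50.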

Assay [2] has as its target T2, BTK C481S (Homo sapiens, UniProt Q06187, C481S).
T2 construct: purchased Carna 08-547
Description: In vitro kinase activity assay (mobility shift assay), BTK C481S. Conditions: ATP 90 μM, reaction time 30 min. Here is the method:
(§2) The IC50 (half inhibitory concentration) values of the compounds were used as an indicator to evaluate the inhibitory effect of the compound on RET wild-type, RET mutant, TRKa, SRC, BTK and/or mutated BTK kinase.
(§3) Using the method of Mobility shift assay, the compounds were tested for inhibitory activity against the following kinases: RET wild type, RET mutant, TRKa, SRC, BTK and/or mutated BTK. The initial concentration of the test compound was 1000 nM, 3-fold dilution, 10 concentrations, detected in a well for each concentration.
(§4) 20 mM hydroxyethylpiperazineethanesulfonic acid (Hepes) (pH 7.5) buffer, 10 mM MgCl2, 1 mM ethylene glycol bis(aminoethyl ether)tetraacetic acid (EGTA), 0.02% polyoxyethylene lauryl ether (Brij35), 0.02 mg/ml […] (BSA), 0.1 mM Na3VO4, 2 mM dithiothreitol (DTT), 1% DMSO.
(§5) The test compounds were dissolved in 100% dimethyl sulfoxide (DMSO) system, and prepared as 10 mM for use, and stored in a nitrogen cabinet away from light.
(§6) • (1) Preparing 1× kinase reaction buffer. • (2) Preparation of compound concentration gradient: the initial concentration of the compounds was 1000 nM, which was diluted as 100-fold final concentration of solution in 100% dimethyl sulfoxide (DMSO) in a 384-well plate. The compound was accurately 3-fold diluted with the kinase buffer solution, 10 concentrations in total, and the final concentration was 0.0508 nM. The 100-fold final concentration of solution in 100% dimethyl sulfoxide (DMSO) was obtained by dilution in 384 source plate. The liquid separator Echo 550 was used to transfer 250 nl of 100-fold final concentration of compound to the target 384 well plate. 250 nl of DMSO was added to the positive and negative control wells. • (3) 2.5-fold final concentration of kinase solution was prepared by the 1× kinase buffer. • (4) 10 4, of 2.5-fold final concentration of kinase solution was added to the compound well and the positive control well, respectively; 10 4, of 1× kinase buffer was added to the negative control well. • (5) After centrifuging at 1000 rpm for 30 second, the reaction plate was shaken and mixed, followed by incubation at room temperature for 10 min. • (6) a mixed solution of 25/15-fold final concentration of adenosine triphosphate (ATP) and kinase substrate was prepared by 1× kinase buffer. • (7) The mixed solution (15 μL) of 25/15-fold final concentration of adenosine triphosphate (ATP) and substrate was added to initiate the reaction. • (8) 384-well plate was centrifuged at 1000 rpm for 30 second, shaken and mixed well, and then incubated at room temperature for 30-240 min. • (9) After stopping the kinase reaction, the plate was centrifugated at 1000 rpm for 30 second, shaken and mixed well. • (10)The conversion rate was read with Caliper EZ Reader.
(§7) wherein Conversion%_sample is the conversion rate reading of the sample; Conversion%_min: the mean value of negative control wells, representing the conversion rate reading of wells without enzymes; Conversion%_max: the mean value of positive control wells, representing the conversion rate reading of wells without compound inhibition.
(§8) The log value of concentration was taken as the X axis, and the percentage inhibition rate was taken as the Y axis. Graphpad 6.0 analysis software was used to fit the dose-response curve, so as to obtain the IC50 value of each compound on the enzyme activity

The target in assay [3] is T3, RET G810R (Homo sapiens, UniProt P07949, G810R).
T3 construct: purchased Proqinase 1724-0000-1
Kind of assay: In vitro kinase activity assay (mobility shift assay), RET G810R. The conditions noted are these: ATP 201 μM, reaction time 4 h. Put shortly:
as §1

Assay [4] has as its target T4, RET V804M (Homo sapiens, UniProt P07949, V804M).
T4 construct: purchased signalchem R02-12GG
Description: In vitro kinase activity assay (mobility shift assay), RET V804M. The conditions noted are these: ATP 5.4 μM, reaction time 60 min. The method in brief: as §1

For assay [5], the target named is T5, TRKa (Homo sapiens, UniProt P04629).
T5 construct: purchased Carna 08-186
Description: In vitro kinase activity assay (mobility shift assay), TRKa. Conditions: ATP 47.8 μM, reaction time 30 min. Put shortly:
as §1

In assay [6] the target is T6, RET wt (Homo sapiens, UniProt P07949).
T6 construct: purchased Carna 08-159
Description: In vitro kinase activity assay (mobility shift assay), RET wild type. The conditions noted are these: ATP 16 μM, reaction time 60 min. The method in brief:
as §1

Assay [7] concerns the target T7, SRC (Homo sapiens, UniProt P12931).
T7 construct: purchased Carna 08-173
Kind of assay: In vitro kinase activity assay (mobility shift assay), SRC. The conditions noted are these: ATP 19 μM, reaction time 30 min. The protocol:
as §2, §3, §4, §5, §6, §7, §8

T5 sequence (P04629 33-796): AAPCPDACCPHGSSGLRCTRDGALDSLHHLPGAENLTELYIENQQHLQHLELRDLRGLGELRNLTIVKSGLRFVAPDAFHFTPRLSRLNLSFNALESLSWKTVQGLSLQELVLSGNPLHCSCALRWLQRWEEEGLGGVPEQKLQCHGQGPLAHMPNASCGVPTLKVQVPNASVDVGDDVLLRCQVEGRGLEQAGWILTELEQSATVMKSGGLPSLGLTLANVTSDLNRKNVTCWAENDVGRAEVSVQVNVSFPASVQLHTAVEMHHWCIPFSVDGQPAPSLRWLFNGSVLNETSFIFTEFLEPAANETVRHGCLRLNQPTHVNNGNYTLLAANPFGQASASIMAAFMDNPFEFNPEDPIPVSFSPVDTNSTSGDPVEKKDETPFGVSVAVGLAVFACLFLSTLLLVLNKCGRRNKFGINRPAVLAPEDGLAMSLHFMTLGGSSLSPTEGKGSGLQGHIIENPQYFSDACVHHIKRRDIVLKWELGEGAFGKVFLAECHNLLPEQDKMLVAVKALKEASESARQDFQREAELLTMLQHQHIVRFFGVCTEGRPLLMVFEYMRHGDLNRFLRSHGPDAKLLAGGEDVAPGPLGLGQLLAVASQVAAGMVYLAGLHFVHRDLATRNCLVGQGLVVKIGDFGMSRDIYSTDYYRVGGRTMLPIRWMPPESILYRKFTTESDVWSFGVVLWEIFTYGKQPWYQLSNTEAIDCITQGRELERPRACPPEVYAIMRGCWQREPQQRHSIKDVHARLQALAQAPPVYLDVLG
T2 sequence (Q06187 whole entry C481S): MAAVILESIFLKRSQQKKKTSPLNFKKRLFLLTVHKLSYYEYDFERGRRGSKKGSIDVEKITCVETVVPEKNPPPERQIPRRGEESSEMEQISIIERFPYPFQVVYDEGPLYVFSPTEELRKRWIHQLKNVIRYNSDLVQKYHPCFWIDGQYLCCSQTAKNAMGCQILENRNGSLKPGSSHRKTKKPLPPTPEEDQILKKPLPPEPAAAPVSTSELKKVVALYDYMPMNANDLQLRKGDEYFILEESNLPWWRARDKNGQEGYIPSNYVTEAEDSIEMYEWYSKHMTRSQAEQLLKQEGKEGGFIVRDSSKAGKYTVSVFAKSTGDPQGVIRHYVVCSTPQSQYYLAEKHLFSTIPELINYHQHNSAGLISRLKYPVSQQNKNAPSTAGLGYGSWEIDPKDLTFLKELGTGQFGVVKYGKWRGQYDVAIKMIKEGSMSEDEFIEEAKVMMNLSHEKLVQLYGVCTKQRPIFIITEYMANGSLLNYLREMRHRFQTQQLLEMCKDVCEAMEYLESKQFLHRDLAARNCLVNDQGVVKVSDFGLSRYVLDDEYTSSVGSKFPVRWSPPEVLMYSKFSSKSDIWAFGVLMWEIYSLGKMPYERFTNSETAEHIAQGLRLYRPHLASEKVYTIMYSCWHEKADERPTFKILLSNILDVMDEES
T1 sequence (Q06187 whole entry): as the sequence (Q06187 whole entry C481S) above, with S481C counted along it
T4 sequence (P07949 29-1114 V804M): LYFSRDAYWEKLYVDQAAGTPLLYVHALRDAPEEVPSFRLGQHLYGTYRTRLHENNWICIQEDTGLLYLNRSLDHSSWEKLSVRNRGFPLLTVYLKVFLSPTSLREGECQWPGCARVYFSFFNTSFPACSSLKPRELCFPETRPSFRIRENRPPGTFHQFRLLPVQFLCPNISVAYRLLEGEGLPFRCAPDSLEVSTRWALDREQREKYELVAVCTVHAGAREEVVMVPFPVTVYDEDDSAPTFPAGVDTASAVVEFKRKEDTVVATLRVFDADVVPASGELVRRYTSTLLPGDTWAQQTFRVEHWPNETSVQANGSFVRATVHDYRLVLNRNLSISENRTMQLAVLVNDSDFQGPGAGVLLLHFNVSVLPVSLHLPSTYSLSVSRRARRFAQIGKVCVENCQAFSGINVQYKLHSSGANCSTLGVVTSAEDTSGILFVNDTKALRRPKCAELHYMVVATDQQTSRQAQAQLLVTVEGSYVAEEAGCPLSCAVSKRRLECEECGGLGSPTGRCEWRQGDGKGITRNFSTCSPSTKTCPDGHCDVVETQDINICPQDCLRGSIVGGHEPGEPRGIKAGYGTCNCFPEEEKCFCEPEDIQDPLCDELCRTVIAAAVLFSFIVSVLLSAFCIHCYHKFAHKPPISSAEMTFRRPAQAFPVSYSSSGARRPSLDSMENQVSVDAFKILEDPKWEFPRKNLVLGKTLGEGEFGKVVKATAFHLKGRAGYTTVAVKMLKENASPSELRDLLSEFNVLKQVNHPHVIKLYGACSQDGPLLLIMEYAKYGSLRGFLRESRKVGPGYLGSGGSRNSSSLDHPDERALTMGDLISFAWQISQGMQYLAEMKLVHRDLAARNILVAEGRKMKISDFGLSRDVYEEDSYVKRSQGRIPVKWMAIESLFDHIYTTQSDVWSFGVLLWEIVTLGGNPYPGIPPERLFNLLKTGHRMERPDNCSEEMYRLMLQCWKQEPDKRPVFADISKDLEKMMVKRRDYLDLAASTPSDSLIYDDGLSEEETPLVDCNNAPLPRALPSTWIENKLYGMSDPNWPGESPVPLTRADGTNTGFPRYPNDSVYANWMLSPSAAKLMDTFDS
T3 sequence (P07949 29-1114 G810R): as the sequence (P07949 29-1114 V804M) above, with M776V, G782R counted along it
T7 sequence (P12931 whole entry): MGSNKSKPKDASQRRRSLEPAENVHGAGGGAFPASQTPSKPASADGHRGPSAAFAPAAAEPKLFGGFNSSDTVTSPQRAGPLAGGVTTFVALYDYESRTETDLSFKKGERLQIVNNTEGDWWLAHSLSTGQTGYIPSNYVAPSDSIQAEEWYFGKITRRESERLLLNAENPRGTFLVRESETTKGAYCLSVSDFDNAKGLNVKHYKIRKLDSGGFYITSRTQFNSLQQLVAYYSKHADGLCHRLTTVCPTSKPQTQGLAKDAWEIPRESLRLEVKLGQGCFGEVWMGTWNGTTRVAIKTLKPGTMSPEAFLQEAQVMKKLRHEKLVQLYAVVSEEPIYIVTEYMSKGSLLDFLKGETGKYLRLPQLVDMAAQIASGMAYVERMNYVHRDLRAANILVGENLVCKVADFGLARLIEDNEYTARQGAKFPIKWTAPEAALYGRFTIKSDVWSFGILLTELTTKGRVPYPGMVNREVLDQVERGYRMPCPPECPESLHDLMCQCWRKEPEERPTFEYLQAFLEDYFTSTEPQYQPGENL
T6 sequence (P07949 29-1114): as the sequence (P07949 29-1114 V804M) above, with M776V counted along it

One may read the IC50 as the midpoint of a concentration-inhibition curve. Regarding `C[C@H]1CNC(=O)c2cnn3cc(-c4ccccc4Cl)c(nc23)NCc2cc(F)cnc2O1` [Compound 4, (S, 1^3E, 1^4E)-1^6-(2-chlorophenyl)-4^5-fluoro-6-methyl-5-oxa-2,8-diaza-1(5,3)-pyrazolo[1,5-a]pyrimidina-4(3,2)-pyridinacyclononaphan-9-one], the concentration for half-maximal inhibition (IC50) was 3.39 nM in assay [1]; 9.84 nM in assay [2]; 21 nM in assay [3]; 161 nM in assay [4]; 294 nM in assay [5]; 2.2 nM in assay [6]. In addition, the IC50 in assay [7] is 0.096 nM.
Consider `C[C@H]1CNC(=O)c2cnn3cc(-c4ccc(Oc5ccccc5)cc4)c(nc23)NCc2cc(F)cnc2O1` [Compound 10, (S, 1^3E, 1^4E)-1^6-(4-phenoxyphenyl)-4^5-fluoro-6-methyl-5-oxa-2,8-diaza-1(5,3)-pyrazolo[1,5-a]pyrimidina-4(3,2)-pyridinacyclononaphan-9-one], for which the half-inhibitory concentration (IC50) in assay [1] was over 10000 nM; in assay [2], over 10000 nM; in assay [3] it was over 10000 nM; in assay [4] it was over 10000 nM; in assay [5], over 10000 nM; in assay [6], 144 nM. The half-inhibitory concentration (IC50) in assay [7] was over 10000 nM.
For `C[C@H]1CNC(=O)c2cnn3cc(-c4ccccc4)c(nc23)NCc2cc(F)cnc2O1` [Example 1, (S, 1^3E, 1^4E)-4^5-fluoro-6-methyl-1^6-phenyl-5-oxa-2,8-diaza-1(5,3)-pyrazolo[1,5-a]pyrimidina-4(3,2)-pyridinacyclononaphan-9-one], the IC50 in assay [1] was 33.5 nM; in assay [2], 31.3 nM; in assay [3] it was 42.1 nM; in assay [4] it was over 10000 nM; in assay [5], over 10000 nM; in assay [6] it was 11 nM. For the same molecule, the IC50 in assay [7] is 10.8 nM.
